Where two headings read alike, the source gives them in different places.
Biological target: T1, full-length human Mineralocorticoid Receptor (MR) (Homo sapiens, UniProt P08235)
T1 construct: host or cells: PathHunter CHO-K1 cells
T1 sequence (P08235 1-984): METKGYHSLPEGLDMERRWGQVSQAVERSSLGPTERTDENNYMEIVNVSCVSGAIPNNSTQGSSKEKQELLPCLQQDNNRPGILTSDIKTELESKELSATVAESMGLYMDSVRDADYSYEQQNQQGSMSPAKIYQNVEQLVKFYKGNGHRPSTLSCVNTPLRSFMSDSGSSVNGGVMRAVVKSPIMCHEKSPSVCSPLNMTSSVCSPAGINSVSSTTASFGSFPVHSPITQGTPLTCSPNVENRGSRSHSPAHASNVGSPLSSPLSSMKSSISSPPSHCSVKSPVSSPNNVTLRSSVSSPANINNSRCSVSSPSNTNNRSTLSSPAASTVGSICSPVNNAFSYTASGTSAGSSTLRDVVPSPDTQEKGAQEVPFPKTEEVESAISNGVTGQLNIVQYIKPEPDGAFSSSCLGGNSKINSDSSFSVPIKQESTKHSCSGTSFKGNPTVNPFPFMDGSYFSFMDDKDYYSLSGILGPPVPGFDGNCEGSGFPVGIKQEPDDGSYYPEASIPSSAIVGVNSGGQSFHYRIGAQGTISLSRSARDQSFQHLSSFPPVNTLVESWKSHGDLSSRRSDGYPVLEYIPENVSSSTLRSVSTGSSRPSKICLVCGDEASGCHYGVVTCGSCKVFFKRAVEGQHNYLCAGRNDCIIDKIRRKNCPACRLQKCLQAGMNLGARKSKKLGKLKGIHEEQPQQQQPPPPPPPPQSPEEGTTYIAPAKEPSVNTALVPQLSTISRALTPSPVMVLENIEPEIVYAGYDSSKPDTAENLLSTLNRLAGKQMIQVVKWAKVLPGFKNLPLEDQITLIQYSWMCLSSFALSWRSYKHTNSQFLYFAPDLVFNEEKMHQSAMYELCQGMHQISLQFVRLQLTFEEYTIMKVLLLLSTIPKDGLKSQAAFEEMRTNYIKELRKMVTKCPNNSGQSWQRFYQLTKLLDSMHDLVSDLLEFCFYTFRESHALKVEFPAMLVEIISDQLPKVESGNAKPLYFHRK
Experiment: human MR NH Pro assay (PathHunter Protein:Protein interaction assay), MR antagonist activity
Format: cell-based
Text: The activity of the compounds of the present invention regarding mineralocorticoid receptor antagonism can be evaluated using the following assay.
Assessment of MR Potency in HMR NH Pro Assay
The human MR NH Pro assay is a commercially available PathHunter™ Protein:Protein interaction assay (DiscoveRx; http://www.discoverx.com/nhrs/prod-nhrs.php) that measures the ability of compounds to antagonize full-length human Mineralocorticoid Receptor (MR) binding to a coactivator peptide.
6. Test compounds are titrated starting at 4.4 mM, 10-point titration in 1:3 dilution.
3. Add 5 μL 6× agonist (final aldosterone concentration should be about 0.3 nM to about 1.0 nM) to all wells (using the PlateMate Plus.)
• (ThermoFisher) (except those wells in columns 23 and 24) 4. Add 5 uL of assay media to all wells in column 23 and 24. 5. Incubate 6 hrs at 37° C., 5% CO2. 6. Add 15 uL 3× DiscoveRx detection reagent to each well. 7. Incubate 1 hour at room temperature (keep plates stored in the dark). 8. Read plates on Envision (PerkinElmer) luminesence plate reader and analyze using ADA.

[1] = PathHunter CHO-K1 cells overexpressing human MR, aldosterone about 0.3 nM, 6 hours at 37° C., luminescence, read-out: Primary Assay IP rating (IP = inflection point for a given dose-response titration curve)

Structure (SMILES) | IC50 [1] [nM] | IC50 [nM]
CCC(CCC#N)(c1ccc(Cl)cc1)n1ncc2c(NS(C)(=O)=O)cccc21 (single isomer, unassigned) [Compound 137, N-(1-(3-(4-chlorophenyl)-1-cyanopentan-3-yl)-1H-indazol-4-yl)methanesulfonamide] | 100 to 500 | 
CCC(CCC#N)(c1ccc(C(F)(F)F)cc1)n1ncc2c(NS(C)(=O)=O)cccc21 (single isomer, unassigned) [Compound 141, N-(1-(1-cyano-3-(4-(trifluoromethyl)phenyl)pentan-3-yl)-1H-indazol-4-yl)methanesulfonamide] | < 100 | 
CCC(CCC#N)(c1ccc(Cl)cc1)n1ccc2c(NS(C)(=O)=O)cc(F)cc21 (single isomer, unassigned) [Compound 142, N-(1-(3-(4-chlorophenyl)-1-cyanopentan-3-yl)-6-fluoro-1H-indol-4-yl)methanesulfonamide] | < 100 | 
CCC(CCC#N)(c1ccc(Cl)cc1)n1ccc2c(NS(C)(=O)=O)cc(F)cc21 (single isomer, unassigned) [Compound 143, N-(1-(3-(4-chlorophenyl)-1-cyanopentan-3-yl)-6-fluoro-1H-indol-4-yl)methanesulfonamide] | < 100 | 
CCC(C(=O)CC#N)(c1ccc(Cl)cc1)n1ccc2c(NS(C)(=O)=O)cccc21 (single isomer, unassigned) [Compound 146, N-(1-(3-(4-Chlorophenyl)-1-cyano-2-oxopentan-3-yl)-1H-indol-4-yl)methanesulfonamide] | < 100 | 
CCC(C(=O)NCCCl)(c1ccc(Cl)cc1)n1ccc2c(NS(C)(=O)=O)cccc21 (single isomer, unassigned) [Compound 148, N-(2-chloroethyl)-2-(4-chlorophenyl)-2-(4-(methylsulfonamido)-1H-indol-1-yl)butanamide] |  | 100 to 500
CCc1noc(C(CC)(c2ccc(Cl)cc2)n2ccc3c(NS(C)(=O)=O)cccc32)n1 (single isomer, unassigned) [Compound 151, N-(1-(1-(4-chlorophenyl)-1-(3-ethyl-1,2,4-oxadiazol-5-yl)propyl)-1H-indol-4-yl)methanesulfonamide] | < 100 | 
CCC(C#CC#N)(c1ccc(Cl)cc1)n1ccc2c(NS(C)(=O)=O)cccc21 (single isomer, unassigned) [Compound 155, N-(1-(3-(4-chlorophenyl)-1-cyanopent-1-yn-3-yl)-1H-indol-4-yl)methanesulfonamide] | < 100 | 
CCC(CCO)(c1ccc(Cl)cc1)n1ccc2c(NS(C)(=O)=O)cccc21 (single isomer, unassigned) [Compound 160, N-(1-(3-(4-Chlorophenyl)-1-hydroxypentan-3-yl)-1H-indol-4-yl)methanesulfonamide] | < 100 | 
CCC(CCO)(c1ccc(Cl)cc1)n1ccc2c(NS(C)(=O)=O)cccc21 (single isomer, unassigned) [Compound 161, N-(1-(3-(4-Chlorophenyl)-1-hydroxypentan-3-yl)-1H-indol-4-yl)methanesulfonamide] | < 100 | 
CCn1nnc(C(CC)(c2ccc(Cl)cc2)n2ccc3c(NS(C)(=O)=O)cccc32)n1 (single isomer, unassigned) [Compound 179, N-(1-(1-(4-chlorophenyl)-1-(2-ethyl-2H-tetrazol-5-yl)propyl)-1H-indol-4-yl)methane sulfonamide] | < 100 | 
CCC(CCC(F)(F)F)(c1ccc(Cl)cc1)n1ccc2c(NS(C)(=O)=O)cccc21 (single isomer, unassigned) [Compound 180, N-(1-(3-(4-chlorophenyl)-6,6,6-trifluorohexan-3-yl)-1H-indol-4-yl)methane sulfonamide] | < 100 | 
COC(=O)C(c1ccc(Cl)cc1)n1ccc2c([N+](=O)[O-])cccc21 (stereo not drawn) [Compound 1, methyl (4-chlorophenyl)(4-nitro-1H-indol-1-yl)acetate] | 500 to 5000 | 
COC(=O)C(c1cccc(Br)c1)n1ccc2c([N+](=O)[O-])cccc21 (stereo not drawn) [Compound 4, methyl (3-bromophenyl)(4-nitro-1H-indol-1-yl)acetate] | 500 to 5000 | 
COC(=O)C(c1ccc(OC)cc1)n1ccc2c([N+](=O)[O-])cccc21 (stereo not drawn) [Compound 5, methyl (4-methoxyphenyl)(4-nitro-1H-indol-1-yl)acetate] | 500 to 5000 | 
CC[C@](C#N)(c1ccc(Cl)cc1)n1ccc2c(NS(C)(=O)=O)cccc21 [Compound 5a, (R)—N-{1-[1-(4-chlorophenyl)-1-cyanopropyl]-1H-indol-4-yl}methanesulfonamide] | < 100 | 
COC(=O)C(c1ccc(F)cc1Cl)n1ccc2cc(Cl)ccc21 (stereo not drawn) [Compound 12, methyl (2-chloro-4-fluorophenyl)(5-chloro-1H-indol-1-yl)acetate] | 500 to 5000 | 
COC(=O)C(c1ccc(F)cc1Cl)n1ccc2cccc(F)c21 (stereo not drawn) [Compound 15, methyl (2-chloro-4-fluorophenyl)(7-fluoro-1H-indol-1-yl)acetate] | 500 to 5000 | 
COC(=O)C(c1ccc(F)cc1Cl)n1ccc2cccc(OCc3ccccc3)c21 (stereo not drawn) [Compound 16, methyl [7-(benzyloxy)-1H-indol-1-yl](2-chloro-4-fluorophenyl)acetate] | 500 to 5000 | 

Further lines, with some results ahead:

IC50 [1] [nM] | Structure (SMILES) | IC50 [nM]
< 100 | CCC(CC#N)(c1ccc(Cl)cc1)n1ccc2c(NS(C)(=O)=O)cc(F)cc21 (single isomer, unassigned) [Compound 125, N-(1-(2-(4-chlorophenyl)-1-cyanobutan-2-yl)-6-fluoro-1H-indol-4-yl)methanesulfonamide] | 
< 100 | CCC(CCC#N)(c1ccc(Cl)cc1)n1ncc2c(NS(C)(=O)=O)cccc21 (single isomer, unassigned) [Compound 138, N-(1-(3-(4-chlorophenyl)-1-cyanopentan-3-yl)-1H-indazol-4-yl)methanesulfonamide] | 
< 100 | CCC(CCC#N)(c1ccc(Cl)cc1)n1ccc2c(NS(C)(=O)=O)cccc21 (single isomer, unassigned) [Compound 140, N-(1-(3-(4-chlorophenyl)-1-cyanopentan-3-yl)-1H-indol-4-yl)methanesulfonamide] | 
< 100 | CCC(c1ccc(Cl)cc1)(c1nc(C)no1)n1ccc2c(NS(C)(=O)=O)cccc21 (single isomer, unassigned) [Compound 150, N-(1-(1-(4-chlorophenyl)-1-(3-methyl-1,2,4-oxadiazol-5-yl)propyl)-1H-indol-4-yl)methanesulfonamide] | 
< 100 | CCC(c1ccc(Cl)cc1)(C(C)N)n1ccc2c(NS(C)(=O)=O)cccc21 (single isomer, unassigned) [Compound 176, N-(1-(2-amino-3-(4-chlorophenyl)pentan-3-yl)-1H-indol-4-yl)methanesulfonamide] | 
100 to 500 | COC(=O)C(c1ccc(F)cc1Cl)n1ccc2c([N+](=O)[O-])cccc21 (stereo not drawn) [Compound 2, methyl (2-chloro-4-fluorophenyl)(4-nitro-1H-indol-1-yl)acetate] | 
100 to 500 | COC(=O)C(c1ccc(Cl)cc1Cl)n1ccc2c([N+](=O)[O-])cccc21 (stereo not drawn) [Compound 3, methyl (2,4-dichlorophenyl)(4-nitro-1H-indol-1-yl)acetate] | 
500 to 5000 | COC(=O)C(c1ccc(F)cc1Cl)n1ccc2cc(C#N)ccc21 (stereo not drawn) [Compound 11, methyl (2-chloro-4-fluorophenyl)(5-cyano-1H-indol-1-yl)acetate] | 
500 to 5000 | COC(=O)C(c1ccc(F)cc1Cl)n1ccc2cc(F)ccc21 (stereo not drawn) [Compound 13, methyl (2-chloro-4-fluorophenyl)(5-fluoro-1H-indol-1-yl)acetate] | 
500 to 5000 | COC(=O)C(c1ccc(F)cc1Cl)n1ccc2ccc(Cl)cc21 (stereo not drawn) [Compound 14, methyl (2-chloro-4-fluorophenyl)(6-chloro-1H-indol-1-yl)acetate] | 
500 to 5000 | CC(C)(C)OC(=O)C(c1ccc(Cl)cc1)n1ccc2c(NS(C)(=O)=O)cccc21 (stereo not drawn) [Compound 18, tert-butyl (4-chlorophenyl){4-[(methylsulfonyl)amino]-1H-indol-1-yl}acetate] | 

— patent US8933113B2 (Merck Sharp & Dohme Corp., priority 2011, dated 2015)
